Consider nine molecules from patent US20060013796A1, “Hair and/or scalp treatment composition” (priority 2002, published 2006).

Test [1] concerns Malassezia furfur CBS 7019. In words: MIC of oils and their components, microtitre plate assay. Type of test: cell-based. The note with it: substance alone. Here is the method:
(§1) Studies into anti-microbial action were performed using a microtitre plate cross-assay in triplicate against the type strain Malassezia furfur CBS 7019. The Fractional Inhibitory Concentration (FIC), the concentration of biocide in a mixture of biocides that inhibits growth, was determined for natural oils and a number of terpenoid components with the conventional anti-dandruff/anti-fungal agents.

The test system of test [2] is Malassezia furfur CBS 7019. In words: Microtitre plate cross-assay, Fractional Inhibitory Concentration (FIC) with conventional anti-dandruff/anti-fungal agents. The format is cell-based. The note with it: M. furfur CBS 7019; for FIC interpretation with Octopirox / FIC values with Octopirox: combination with Octopirox; for FIC values with Octopirox / FIC values with climbazole / FIC values with zinc pyrithione (ZnPTO): triplicate; for FIC interpretation with climbazole / FIC values with climbazole: combination with climbazole; for FIC interpretation with zinc pyrithione (ZnPTO) / FIC values with zinc pyrithione (ZnPTO): combination with zinc pyrithione (ZnPTO). Here is the method:
FIC values are for activity against M.furfur, such as CBS 7019, and are calculated in ways well-known in the art.
as §1
The definition of synergy is a combination of biocides in which the effect is greater than the sum of the expected effects of the individual components.

As to `C=CCc1ccc(OC)cc1` [4-allylanisole], the “MIC values for oils and their components” value in test [1] turned out to be 0.25%. In addition, in test [2], the “FIC interpretation with Octopirox” value is recorded as “antagonistic (>1 antagonistic)”, the “FIC values with Octopirox” value is reported as 2, the “FIC interpretation with climbazole” value is “antagonistic (>1 antagonistic)” and the “FIC values with climbazole” value stood at 2. Also, in test [2], the “FIC interpretation with zinc pyrithione (ZnPTO)” value (“FIC interpretation … (ZnPTO)” below) is “synergy (<1 synergy)” and the “FIC values with zinc pyrithione (ZnPTO)” value is listed as 0.725.

In the case of `C=C1C2CCC(C2)C1(C)C` (centres unmarked) [Camphene], in test [1], the “MIC values for oils and their components” value is given as above 8%.

On to `CC12CCC(CC1)C(C)(C)O2` [Cineole], for which the “MIC values for oils and their components” value in test [1] is given as 1%.

`C=CCc1ccc(O)c(OC)c1` [Eugenol, eugenol]: the “MIC values for oils and their components” value in test [1] amounted to 0.01%. In addition, in test [2], the “FIC interpretation with Octopirox” value is “synergy (<1 synergy)”, the “FIC values with Octopirox” value came to 0.567, the “FIC interpretation with climbazole” value is “synergy (<1 synergy)” and the “FIC values with climbazole” value amounted to 0.56. Further, in test [2], the “FIC interpretation … (ZnPTO)” value is “synergy (<1 synergy)” and the “FIC values with zinc pyrithione (ZnPTO)” value was determined as 0.625.

As to `C=C(C)[C@H]1CC=C(C)CC1` [Limonene], the “MIC values for oils and their components” value in test [1] is on record as above 8%. Moreover, in test [2], the “FIC interpretation with Octopirox” value is on record as “antagonistic (>1 antagonistic)”, the “FIC values with Octopirox” value is 2, the “FIC interpretation with climbazole” value is reported as “antagonistic (>1 antagonistic)” and the “FIC values with climbazole” value was found to be 2. In addition, in test [2], the “FIC interpretation … (ZnPTO)” value is “antagonistic (>1 antagonistic)” and the “FIC values with zinc pyrithione (ZnPTO)” value is listed as 1.5.

For `C=CC(C)(O)CCC=C(C)C` (centres unmarked) [Linalool, linalool], in test [1], the “MIC values for oils and their components” value is 0.01%. Besides, in test [2], the “FIC interpretation with Octopirox” value is “antagonistic (>1 antagonistic)”, the “FIC values with Octopirox” value stood at 2, the “FIC values with climbazole” value was 0.417 and the “FIC interpretation … (ZnPTO)” value is reported as “synergy (<1 synergy)”. The “FIC values with zinc pyrithione (ZnPTO)” value in test [2] is on record as 0.625.

On to `CC1=CCC(O)(C(C)C)CC1` (centres unmarked) [terpinen-4-ol], for which, in test [2], the “FIC interpretation with Octopirox” value was “antagonistic (>1 antagonistic)”, the “FIC values with Octopirox” value is 2, the “FIC values with climbazole” value is 0.37 and the “FIC interpretation … (ZnPTO)” value is recorded as “synergy (<1 synergy)”. Also, the “FIC values with zinc pyrithione (ZnPTO)” value in test [2] amounted to 0.83.

`CC1=CCC2CC1C2(C)C` (stereo not drawn) [α-pinene]: the “MIC values for oils and their components” value in test [1] is 0.3%. In addition, in test [2], the “FIC interpretation with Octopirox” value was “antagonistic (>1 antagonistic)”, the “FIC values with Octopirox” value is listed as 2, the “FIC interpretation with climbazole” value was “antagonistic (>1 antagonistic)” and the “FIC values with climbazole” value turned out to be 2. In addition, in test [2], the “FIC interpretation … (ZnPTO)” value is on record as “antagonistic (>1 antagonistic)” and the “FIC values with zinc pyrithione (ZnPTO)” value is 1.42.

On to `CC1=CCC(C(C)(C)O)CC1` (stereo not drawn) [α-terpineol, alpha-terpineol], for which the “MIC values for oils and their components” value in test [1] is listed as 0.02%. Also, in test [2], the “FIC values with Octopirox” value amounted to 2, the “FIC interpretation with climbazole” value is “synergy (<1 synergy)”, the “FIC values with climbazole” value is recorded as 0.625 and the “FIC interpretation … (ZnPTO)” value is reported as “antagonistic (>1 antagonistic)”. Moreover, the “FIC values with zinc pyrithione (ZnPTO)” value in test [2] came to 2.
